System: 156681-154-R-J1-PDC complex spheroid viability
Experiment: Anticancer human tumor 156681-154-R-J1-PDC patient-derived melanoma cell line growth inhibition [CLK]
Settings: for IC50: curve of first compound; for viability, T/C: stronger effect = lower value
Method in brief: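 Multi-cell-type spheroids combined patient-derived tumor cells with HUVEC endothelial cells and human mesenchymal stem cells. Paired agents were dosed in half-log steps down from about clinical Cmax, or from 10 microM where Cmax was unknown.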

[1] = second compound 0.0316 µM, first compound 0.0316 µM
[2] = second compound 0.0316 µM, first compound 0.1 µM
[3] = second compound 0.1 µM, first compound 0.0316 µM
[4] = second compound 0.1 µM, first compound 0.1 µM
[5] = second compound 0.316 µM, first compound 0.0316 µM
[6] = second compound 0.316 µM, first compound 0.1 µM
[7] = second compound 1 µM, first compound 0.0316 µM
[8] = second compound 1 µM, first compound 0.1 µM
[9] = second compound 3.16 µM, first compound 0.0316 µM
[10] = second compound 3.16 µM, first compound 0.1 µM
[11] = second compound 10 µM, first compound 0.0316 µM
[12] = second compound 10 µM, first compound 0.1 µM
[13] = second compound 0.0316 µM, first compound 0.316 µM
[14] = second compound 0.0316 µM, first compound 1 µM
[15] = second compound 0.0316 µM, first compound 3.16 µM
[16] = second compound 0.0316 µM, first compound 10 µM
[17] = second compound 0.1 µM, first compound 0.316 µM
[18] = second compound 0.1 µM, first compound 1 µM
[19] = second compound 0.1 µM, first compound 3.16 µM
[20] = second compound 0.1 µM, first compound 10 µM
[21] = second compound 0.316 µM, first compound 0.316 µM
[22] = second compound 0.316 µM, first compound 1 µM
[23] = second compound 0.316 µM, first compound 3.16 µM
[24] = second compound 0.316 µM, first compound 10 µM
[25] = second compound 1 µM, first compound 0.316 µM
[26] = second compound 1 µM, first compound 1 µM
[27] = second compound 1 µM, first compound 3.16 µM
[28] = second compound 1 µM, first compound 10 µM
[29] = second compound 3.16 µM, first compound 0.316 µM
[30] = second compound 3.16 µM, first compound 1 µM
[31] = second compound 3.16 µM, first compound 3.16 µM
[32] = second compound 3.16 µM, first compound 10 µM
[33] = second compound 10 µM, first compound 0.316 µM
[34] = second compound 10 µM, first compound 1 µM
[35] = second compound 10 µM, first compound 3.16 µM
[36] = second compound 10 µM, first compound 10 µM
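Note: spheroids exposed to the agents for seven days.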
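Throughout, for viability, T/C: 100% = DMSO vehicle control viability.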

## Cn1ncnc1[C@H]1c2n[nH]c(=O)c3cc(F)cc(c23)N[C@@H]1c1ccc(F)cc1 + CNC(=O)c1ccc(Nc2nc(OC3CCCC3)c3c(-c4ccc5nc(C)oc5c4)c[nH]c3n2)c(OC)c1
Second compound 0.0316 µM
  IC50: > 100 nM
Second compound 0.1 µM
  IC50: > 100 nM
Second compound 0.316 µM
  IC50: > 100 nM
Second compound 1 µM
  IC50: 0.316 nM
Second compound 3.16 µM
  IC50: < 0.316 nM
Second compound 10 µM
  IC50: < 0.316 nM
Second compound 0.0316 µM, first compound 0.000316 µM
  viability, T/C: 91.5%
Second compound 0.0316 µM, first compound 0.001 µM
  viability, T/C: 87.8%
Second compound 0.0316 µM, first compound 0.00316 µM
  viability, T/C: 74.9%
Second compound 0.0316 µM, first compound 0.01 µM
  viability, T/C: 84.6%
[1]
  viability, T/C: 83.2%
[2]
  viability, T/C: 64.1%
Second compound 0.1 µM, first compound 0.000316 µM
  viability, T/C: 56.9%
Second compound 0.1 µM, first compound 0.001 µM
  viability, T/C: 68.6%
Second compound 0.1 µM, first compound 0.00316 µM
  viability, T/C: 75.9%
Second compound 0.1 µM, first compound 0.01 µM
  viability, T/C: 66.6%
[3]
  viability, T/C: 62.3%
[4]
  viability, T/C: 53.5%
Second compound 0.316 µM, first compound 0.000316 µM
  viability, T/C: 67%
Second compound 0.316 µM, first compound 0.001 µM
  viability, T/C: 68.4%
Second compound 0.316 µM, first compound 0.00316 µM
  viability, T/C: 55.4%
Second compound 0.316 µM, first compound 0.01 µM
  viability, T/C: 58.4%
[5]
  viability, T/C: 60%
[6]
  viability, T/C: 51.9%
Second compound 1 µM, first compound 0.000316 µM
  viability, T/C: 51.8%
Second compound 1 µM, first compound 0.001 µM
  viability, T/C: 51.1%
Second compound 1 µM, first compound 0.00316 µM
  viability, T/C: 39.8%
Second compound 1 µM, first compound 0.01 µM
  viability, T/C: 44.3%
[7]
  viability, T/C: 53.6%
[8]
  viability, T/C: 29.3%
Second compound 3.16 µM, first compound 0.000316 µM
  viability, T/C: 55.1%
Second compound 3.16 µM, first compound 0.001 µM
  viability, T/C: 41.5%
Second compound 3.16 µM, first compound 0.00316 µM
  viability, T/C: 43.6%
Second compound 3.16 µM, first compound 0.01 µM
  viability, T/C: 49.5%
[9]
  viability, T/C: 39.5%
[10]
  viability, T/C: 33.1%
Second compound 10 µM, first compound 0.000316 µM
  viability, T/C: 49.3%
Second compound 10 µM, first compound 0.001 µM
  viability, T/C: 43.9%
Second compound 10 µM, first compound 0.00316 µM
  viability, T/C: 33.6%
Second compound 10 µM, first compound 0.01 µM
  viability, T/C: 32.5%
[11]
  viability, T/C: 38.6%
[12]
  viability, T/C: 25.4%

## Nc1ccn(C2OC(CO)C(O)C2(F)F)c(=O)n1 (stereo unspecified) + CNC(=O)c1ccc(Nc2nc(OC3CCCC3)c3c(-c4ccc5nc(C)oc5c4)c[nH]c3n2)c(OC)c1
Second compound 0.0316 µM
  IC50: < 31.6 nM
Second compound 0.1 µM
  IC50: < 31.6 nM
Second compound 0.316 µM
  IC50: < 31.6 nM
Second compound 1 µM
  IC50: < 31.6 nM
Second compound 3.16 µM
  IC50: < 31.6 nM
Second compound 10 µM
  IC50: < 31.6 nM
[1]
  viability, T/C: 12.3%
[2]
  viability, T/C: 15.9%
[13]
  viability, T/C: 13.6%
[14]
  viability, T/C: 17.9%
[15]
  viability, T/C: 15.6%
[16]
  viability, T/C: 15.2%
[3]
  viability, T/C: 13.2%
[4]
  viability, T/C: 13.4%
[17]
  viability, T/C: 14.2%
[18]
  viability, T/C: 16.1%
[19]
  viability, T/C: 15.7%
[20]
  viability, T/C: 14%
[5]
  viability, T/C: 15.7%
[6]
  viability, T/C: 11.9%
[21]
  viability, T/C: 19%
[22]
  viability, T/C: 13%
[23]
  viability, T/C: 12.2%
[24]
  viability, T/C: 12.5%
[7]
  viability, T/C: 20.5%
[8]
  viability, T/C: 11.2%
[25]
  viability, T/C: 7.8%
[26]
  viability, T/C: 9.13%
[27]
  viability, T/C: 12.3%
[28]
  viability, T/C: 10.8%
[9]
  viability, T/C: 25.3%
[10]
  viability, T/C: 12.3%
[29]
  viability, T/C: 9.98%
[30]
  viability, T/C: 7.12%
[31]
  viability, T/C: 11.4%
[32]
  viability, T/C: 7.7%
[11]
  viability, T/C: 28.5%
[12]
  viability, T/C: 12.4%
[33]
  viability, T/C: 9.66%
[34]
  viability, T/C: 9.99%
[35]
  viability, T/C: 12.1%
[36]
  viability, T/C: 7.49%

## O=c1[nH]cc(F)c(=O)[nH]1 + CNC(=O)c1ccc(Nc2nc(OC3CCCC3)c3c(-c4ccc5nc(C)oc5c4)c[nH]c3n2)c(OC)c1
Second compound 0.0316 µM
  IC50: 7950 nM
Second compound 0.1 µM
  IC50: 5500 nM
Second compound 0.316 µM
  IC50: 3420 nM
Second compound 1 µM
  IC50: 4120 nM
Second compound 3.16 µM
  IC50: < 31.6 nM
Second compound 10 µM
  IC50: < 31.6 nM
[1]
  viability, T/C: 96.6%
[2]
  viability, T/C: 99%
[13]
  viability, T/C: 91.9%
[14]
  viability, T/C: 95.9%
[15]
  viability, T/C: 86.9%
[16]
  viability, T/C: 40.8%
[3]
  viability, T/C: 63.9%
[4]
  viability, T/C: 79.2%
[17]
  viability, T/C: 74.4%
[18]
  viability, T/C: 74.3%
[19]
  viability, T/C: 59.6%
[20]
  viability, T/C: 39.7%
[5]
  viability, T/C: 78.6%
[6]
  viability, T/C: 75.2%
[21]
  viability, T/C: 73.4%
[22]
  viability, T/C: 60.7%
[23]
  viability, T/C: 53.8%
[24]
  viability, T/C: 30.6%
[7]
  viability, T/C: 70.7%
[8]
  viability, T/C: 46.3%
[25]
  viability, T/C: 58.2%
[26]
  viability, T/C: 52.7%
[27]
  viability, T/C: 62.2%
[28]
  viability, T/C: 23.6%
[9]
  viability, T/C: 49.7%
[10]
  viability, T/C: 42.3%
[29]
  viability, T/C: 47.9%
[30]
  viability, T/C: 43.8%
[31]
  viability, T/C: 35%
[32]
  viability, T/C: 19.8%
[11]
  viability, T/C: 51%
[12]
  viability, T/C: 40.5%
[33]
  viability, T/C: 41.2%
[34]
  viability, T/C: 45.4%
[35]
  viability, T/C: 41.2%
[36]
  viability, T/C: 20.1%
